Laboratory results reported in article PMC3914206.

Columns and labels:
Type in all cases: binding
[1] = target: T1, panel of 442 kinases (Homo sapiens, UniProt P17948); conditions: Compound Concentration 10 µM
T1 construct: purchased KINOMEscan
Source text: (§1) We assessed the selectivity of members of this scaffold using the KINOMEscan methodology across a near comprehensive panel of 442 kinases [[18,27]].

[2] = target: T2, panel of 442 kinases (Homo sapiens, UniProt Q13164); conditions: Compound Concentration 10 µM
T2 construct: purchased KINOMEscan
T2 sequence (Q13164 whole entry): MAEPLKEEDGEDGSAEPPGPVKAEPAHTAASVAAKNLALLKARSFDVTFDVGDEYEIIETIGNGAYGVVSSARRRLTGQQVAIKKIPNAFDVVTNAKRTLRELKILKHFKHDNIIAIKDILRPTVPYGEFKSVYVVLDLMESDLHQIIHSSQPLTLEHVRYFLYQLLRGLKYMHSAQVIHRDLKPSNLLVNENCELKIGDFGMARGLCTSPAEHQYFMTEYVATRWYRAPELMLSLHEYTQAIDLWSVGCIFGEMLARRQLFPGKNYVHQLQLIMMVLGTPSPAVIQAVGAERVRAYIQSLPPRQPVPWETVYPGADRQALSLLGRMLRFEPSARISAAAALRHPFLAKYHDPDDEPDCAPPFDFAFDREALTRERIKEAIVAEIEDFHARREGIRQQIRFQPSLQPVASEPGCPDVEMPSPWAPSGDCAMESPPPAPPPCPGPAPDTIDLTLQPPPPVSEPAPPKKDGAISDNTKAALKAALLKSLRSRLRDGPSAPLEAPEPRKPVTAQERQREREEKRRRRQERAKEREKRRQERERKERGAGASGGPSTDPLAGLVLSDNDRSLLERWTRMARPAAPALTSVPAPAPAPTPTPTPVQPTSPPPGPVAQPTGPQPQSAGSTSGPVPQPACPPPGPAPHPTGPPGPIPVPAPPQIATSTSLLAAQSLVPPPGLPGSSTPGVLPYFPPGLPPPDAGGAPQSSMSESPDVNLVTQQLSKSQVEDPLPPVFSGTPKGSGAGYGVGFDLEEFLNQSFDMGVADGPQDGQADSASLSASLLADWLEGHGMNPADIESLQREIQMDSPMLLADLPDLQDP
Source text: as §1

[3] = target: T3, panel of 442 kinases (Homo sapiens, UniProt Q96Q40); conditions: Compound Concentration 10 µM
T3 construct: purchased KINOMEscan
T3 sequence (Q96Q40 whole entry): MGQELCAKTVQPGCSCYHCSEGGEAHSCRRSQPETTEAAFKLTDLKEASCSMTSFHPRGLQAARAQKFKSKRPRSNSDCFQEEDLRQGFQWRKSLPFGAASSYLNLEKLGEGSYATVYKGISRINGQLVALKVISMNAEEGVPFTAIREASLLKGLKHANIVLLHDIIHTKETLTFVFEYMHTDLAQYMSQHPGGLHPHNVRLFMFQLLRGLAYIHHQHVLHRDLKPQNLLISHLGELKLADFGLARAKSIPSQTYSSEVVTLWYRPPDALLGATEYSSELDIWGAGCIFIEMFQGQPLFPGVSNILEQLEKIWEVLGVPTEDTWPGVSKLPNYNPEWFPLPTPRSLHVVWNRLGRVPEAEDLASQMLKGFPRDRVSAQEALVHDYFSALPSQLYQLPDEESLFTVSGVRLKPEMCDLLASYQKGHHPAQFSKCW
Source text: as §1

[4] = target: T4, panel of 442 kinases (Homo sapiens, UniProt Q9H2G2); conditions: kinase SLK; compound concentration 10 µM
T4 construct: purchased KINOMEscan
T4 sequence (Q9H2G2 whole entry): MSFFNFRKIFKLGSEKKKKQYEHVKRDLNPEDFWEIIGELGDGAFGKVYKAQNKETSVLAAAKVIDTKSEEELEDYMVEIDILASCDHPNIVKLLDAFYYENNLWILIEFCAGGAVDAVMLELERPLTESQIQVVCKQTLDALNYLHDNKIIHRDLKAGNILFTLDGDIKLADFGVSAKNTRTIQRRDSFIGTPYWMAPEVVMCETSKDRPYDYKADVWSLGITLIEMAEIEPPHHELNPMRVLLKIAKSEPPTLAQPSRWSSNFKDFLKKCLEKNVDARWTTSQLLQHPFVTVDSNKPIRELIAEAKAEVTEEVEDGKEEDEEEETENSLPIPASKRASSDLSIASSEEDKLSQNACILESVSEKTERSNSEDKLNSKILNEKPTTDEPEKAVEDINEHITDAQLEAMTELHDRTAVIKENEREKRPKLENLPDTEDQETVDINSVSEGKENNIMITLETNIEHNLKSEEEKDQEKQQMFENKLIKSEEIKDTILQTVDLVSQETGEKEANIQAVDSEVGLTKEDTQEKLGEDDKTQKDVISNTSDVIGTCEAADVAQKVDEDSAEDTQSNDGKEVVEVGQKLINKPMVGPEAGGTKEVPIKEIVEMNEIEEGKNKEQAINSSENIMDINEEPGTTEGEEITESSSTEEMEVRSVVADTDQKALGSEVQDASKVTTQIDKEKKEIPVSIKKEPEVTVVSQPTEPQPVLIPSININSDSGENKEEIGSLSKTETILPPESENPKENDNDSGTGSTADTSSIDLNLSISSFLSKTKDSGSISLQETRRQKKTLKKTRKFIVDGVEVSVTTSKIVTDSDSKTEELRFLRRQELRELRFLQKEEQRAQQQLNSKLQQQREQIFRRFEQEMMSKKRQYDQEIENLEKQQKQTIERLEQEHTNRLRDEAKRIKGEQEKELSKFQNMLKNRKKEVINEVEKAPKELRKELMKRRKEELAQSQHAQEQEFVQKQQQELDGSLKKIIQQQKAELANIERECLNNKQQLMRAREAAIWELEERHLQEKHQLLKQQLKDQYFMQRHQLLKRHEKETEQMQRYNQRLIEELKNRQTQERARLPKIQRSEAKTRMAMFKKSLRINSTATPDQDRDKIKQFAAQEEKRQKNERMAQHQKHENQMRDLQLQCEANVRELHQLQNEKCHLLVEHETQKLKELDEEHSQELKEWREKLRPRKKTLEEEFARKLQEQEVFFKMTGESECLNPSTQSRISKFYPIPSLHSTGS
Source text: as §1

T1 sequence (P17948 27-1338): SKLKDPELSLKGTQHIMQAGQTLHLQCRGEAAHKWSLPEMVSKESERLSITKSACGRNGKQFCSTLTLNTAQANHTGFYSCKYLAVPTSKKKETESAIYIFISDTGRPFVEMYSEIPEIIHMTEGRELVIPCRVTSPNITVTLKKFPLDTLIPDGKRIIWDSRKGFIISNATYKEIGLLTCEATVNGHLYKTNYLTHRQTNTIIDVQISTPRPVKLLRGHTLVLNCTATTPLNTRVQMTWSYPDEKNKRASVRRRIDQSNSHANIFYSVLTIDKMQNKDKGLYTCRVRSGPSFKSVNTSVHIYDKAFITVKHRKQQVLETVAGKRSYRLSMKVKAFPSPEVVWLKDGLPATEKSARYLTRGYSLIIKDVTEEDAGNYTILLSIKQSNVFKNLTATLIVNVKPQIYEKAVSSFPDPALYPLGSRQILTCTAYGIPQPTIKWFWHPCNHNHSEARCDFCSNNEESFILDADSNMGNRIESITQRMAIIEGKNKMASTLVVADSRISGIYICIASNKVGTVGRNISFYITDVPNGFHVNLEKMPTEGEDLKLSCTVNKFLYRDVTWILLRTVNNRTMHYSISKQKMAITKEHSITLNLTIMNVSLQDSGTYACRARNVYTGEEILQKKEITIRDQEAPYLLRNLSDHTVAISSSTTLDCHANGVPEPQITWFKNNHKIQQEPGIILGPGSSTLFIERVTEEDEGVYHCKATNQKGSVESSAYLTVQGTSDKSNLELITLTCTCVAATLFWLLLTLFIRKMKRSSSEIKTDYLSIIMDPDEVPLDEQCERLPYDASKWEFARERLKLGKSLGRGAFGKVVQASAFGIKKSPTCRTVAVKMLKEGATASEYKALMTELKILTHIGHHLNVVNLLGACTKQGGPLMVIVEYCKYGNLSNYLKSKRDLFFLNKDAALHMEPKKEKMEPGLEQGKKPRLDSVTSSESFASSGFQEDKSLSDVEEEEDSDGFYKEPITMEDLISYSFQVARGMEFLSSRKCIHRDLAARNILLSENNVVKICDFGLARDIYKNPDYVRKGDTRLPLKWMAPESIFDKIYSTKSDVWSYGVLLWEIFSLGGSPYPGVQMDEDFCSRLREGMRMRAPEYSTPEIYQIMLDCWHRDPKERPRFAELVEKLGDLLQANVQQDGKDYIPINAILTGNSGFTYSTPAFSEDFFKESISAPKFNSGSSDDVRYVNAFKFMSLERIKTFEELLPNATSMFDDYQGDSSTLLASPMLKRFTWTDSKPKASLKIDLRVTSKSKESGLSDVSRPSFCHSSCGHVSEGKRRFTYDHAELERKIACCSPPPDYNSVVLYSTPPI

Compound	KINOMEscan: FLT1 [1]	KINOMEscan: ERK5 [2]	KINOMEscan: PFTAIRE2 [3]	% Ctrl, SLK [4] [% Ctrl]
COc1cc(C(=O)N2CCC(N3CCN(C)CC3)CC2)ccc1Nc1ncc2c(n1)N(C)c1ccccc1C(=O)N2C [15 (LRRK2-IN-1)]	100	0.05	100	100
COc1cc(C(=O)N2CCC(N3CCN(C)CC3)CC2)ccc1Nc1ncc2c(n1)N1CCc3cccc(c31)C(=O)N2C [Compound 24]	–	–	–	49
COc1cc(C(=O)N2CCC(N3CCN(C)CC3)CC2)ccc1Nc1ncc2c(n1)N(C1CCCC1)c1ccccc1C(=O)N2C [Compound 25, 11-cyclopentyl-2-((2-methoxy-4-(4-(4-methylpiperazin-1-yl)piperidine-1-carbonyl)phenyl)amino)-5-methyl-5H-benzo[e]pyrimido[5,4-b][1,4]diazepin-6(11H)-one]	100	0.05	99	100
CCOc1cc(C(=O)N2CCC(N3CCN(C)CC3)CC2)ccc1Nc1ncc2c(n1)N(C1CCCC1)c1ccccc1C(=O)N2C [Compound 26]	100	0.1	100	100
